Test results: patent publication US20250230193A1, “CYCLIC COMPOUND HAVING SELECTIVE KRAS INHIBITORY EFFECT ON HRAS AND NRAS” (CHUGAI SEIYAKU KABUSHIKI KAISHA, priority 2022, published 2025)
Where a SMILES comes first, the peptide text is derived from it. Bridges are numbered along the chain shown (N, C = ends). [ ]: non-standard residue; d: D form. The star is where a group is joined. hPhe(3-Cl-4-CF3) = N[C@@H](CCc1ccc(C(F)(F)F)c(Cl)c1)C(=O)O; NPrPhe(4-CF3) = CCCN[C@@H](Cc1ccc(C(F)(F)F)cc1)C(=O)O; NMeGly(cPent) = CN[C@H](C(=O)O)C1CCCC1; Pro(4,4-F2) = O=C(O)[C@@H]1CC(F)(F)CN1; Gly(cPent) = N[C@H](C(=O)O)C1CCCC1; NMeD = CN[C@@H](CC(=O)O)C(=O)O; NMeL = CN[C@@H](CC(C)C)C(=O)O; Morpholide = C1CN(*)CCO1; NMeA = CN[C@@H](C)C(=O)O; Ac5c = NC1(C(=O)O)CCCC1; Aze = O=C(O)[C@@H]1CCN1; Ac4c = NC1(C(=O)O)CCC1; Sar = CNCC(=O)O

Assays:
[1] = biological target: GDP-bound NRAS wild-type protein (Homo sapiens, UniProt P01111); experiment: Binding to NRAS by surface plasmon resonance (SPR), Single Cycle Kinetics
[2] = biological target: GDP-bound HRAS wild-type protein (Homo sapiens, UniProt P01112); experiment: Binding to HRAS by surface plasmon resonance (SPR), Single Cycle Kinetics
GDP-bound HRAS wild-type protein, sequence (P01112 whole entry): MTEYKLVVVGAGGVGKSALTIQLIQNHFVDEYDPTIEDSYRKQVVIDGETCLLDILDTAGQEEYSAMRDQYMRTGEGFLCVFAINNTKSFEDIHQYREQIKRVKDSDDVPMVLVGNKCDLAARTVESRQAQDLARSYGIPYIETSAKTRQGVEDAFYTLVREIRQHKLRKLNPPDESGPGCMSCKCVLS

GDP-bound NRAS wild-type protein, sequence (P01111 whole entry): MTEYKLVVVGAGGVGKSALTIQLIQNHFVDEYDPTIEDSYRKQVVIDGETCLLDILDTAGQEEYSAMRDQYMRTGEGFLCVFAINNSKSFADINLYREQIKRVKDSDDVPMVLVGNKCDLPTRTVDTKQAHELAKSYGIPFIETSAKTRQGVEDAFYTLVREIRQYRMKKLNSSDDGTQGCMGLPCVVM

CCCN1C(=O)CN(C)C(=O)[C@@H]2CCN2C(=O)[C@H]([C@@H](C)CC)NC(=O)[C@H](CC(C)C)N(C)C(=O)C[C@@H](C(=O)N(C)C)NC(=O)[C@H](C2CCCC2)N(C)C(=O)C2(CCCC2)NC(=O)[C@@H]2CC(F)(F)CN2C(=O)[C@H](CCc2ccc(C(F)(F)F)c(Cl)c2)NC(=O)CN(C)C(=O)[C@@H]1Cc1ccc(C(F)(F)F)cc1 [PP0375] ([NMeL]I[Aze][Sar][NPrPhe(4-CF3)][Sar][hPhe(3-Cl-4-CF3)][Pro(4,4-F2)][Ac5c][NMeGly(cPent)]D-NMe2; lactam N-11)
NRAS/KRAS (ratio of KD for GDP-bound NRAS wild-type to KD for KRAS) ([1]; KD ratio NRAS/KRAS, SPR): B (a compound having 3 or more and less than 10 is denoted as B) | HRAS/KRAS (ratio of KD for GDP-bound HRAS wild-type to KD for KRAS) ([2]; KD ratio HRAS/KRAS, SPR): B (a compound having 3 or more and less than 10 is denoted as B)

CCCN1C(=O)[C@@H]2CCN2C(=O)[C@H](C)N(C)C(=O)[C@H](C2CCCC2)NC(=O)[C@H](CC(C)C)N(C)C(=O)C[C@@H](C(=O)N2CCOCC2)N(C)C(=O)[C@H](C2CCCC2)N(C)C(=O)C2(CCCC2)NC(=O)[C@@H]2CCCN2C(=O)[C@H](CCc2ccc(C(F)(F)F)c(Cl)c2)NC(=O)CN(C)C(=O)[C@@H]1Cc1ccc(C(F)(F)F)cc1 [PP0272] ([NMeL][Gly(cPent)][NMeA][Aze][NPrPhe(4-CF3)][Sar][hPhe(3-Cl-4-CF3)]P[Ac5c][NMeGly(cPent)][NMeD]-Morpholide; lactam N-11)
NRAS/KRAS (ratio of KD for GDP-bound NRAS wild-type to KD for KRAS) ([1]; KD ratio NRAS/KRAS, SPR): C (A compound having a KD ratio of 0.1 or more and less than 3 is denoted as C) | HRAS/KRAS (ratio of KD for GDP-bound HRAS wild-type to KD for KRAS) ([2]; KD ratio HRAS/KRAS, SPR): B (a compound having 3 or more and less than 10 is denoted as B)

CCCN1C(=O)[C@@H]2CCN2C(=O)[C@H](C)N(C)C(=O)[C@H]([C@@H](C)CC)NC(=O)[C@H](CC(C)C)N(C)C(=O)C[C@@H](C(=O)N(C)C)NC(=O)[C@H](C2CCCC2)N(C)C(=O)C2(CCC2)NC(=O)[C@@H]2CCCN2C(=O)[C@H](CCc2ccc(C(F)(F)F)c(Cl)c2)NC(=O)CN(C)C(=O)[C@@H]1Cc1ccc(C(F)(F)F)cc1 [PP0380] ([NMeL]I[NMeA][Aze][NPrPhe(4-CF3)][Sar][hPhe(3-Cl-4-CF3)]P[Ac4c][NMeGly(cPent)]D-NMe2; lactam N-11)
NRAS/KRAS (ratio of KD for GDP-bound NRAS wild-type to KD for KRAS) ([1]; KD ratio NRAS/KRAS, SPR): C (A compound having a KD ratio of 0.1 or more and less than 3 is denoted as C) | HRAS/KRAS (ratio of KD for GDP-bound HRAS wild-type to KD for KRAS) ([2]; KD ratio HRAS/KRAS, SPR): B (a compound having 3 or more and less than 10 is denoted as B)

CCC[C@H]1C(=O)N[C@@H]([C@@H](C)CC)C(=O)N(C)CC(=O)N(C)[C@H]2C/C=C\CCN(C2=O)[C@@H](Cc2ccc(C(F)(F)F)cc2)C(=O)N(C)CC(=O)N[C@@H](CCc2ccc3c(C)cn(C)c3c2)C(=O)N2C[C@H](OCC)C[C@H]2C(=O)NC2(CC(C)(C)C2)C(=O)N(C)[C@@H](C2CCCC2)C(=O)N(C)[C@H](C(=O)N(C)C)CC(=O)N1C [PP2897]
NRAS/KRAS (ratio of KD value with respect to GDP-bound NRAS wild-type protein to KD value with respect to KRAS) ([1]; KD ratio NRAS/KRAS, class symbols): A (a compound having 10 or more and less than 20 is denoted as A) | HRAS/KRAS (ratio of KD value with respect to GDP-bound HRAS wild-type protein to KD value with respect to KRAS) ([2]; KD ratio HRAS/KRAS, class symbols): B (a compound having 3 or more and less than 10 is denoted as B)

CCC[C@H]1C(=O)N[C@@H]([C@@H](C)CC)C(=O)N(C)CC(=O)N(C)[C@H]2C/C=C\CCN(C2=O)[C@@H](Cc2ccc(C(F)(F)F)cc2)C(=O)N(C)CC(=O)N[C@@H](CCc2ccc(C(F)(F)F)c(OC)c2)C(=O)N2C[C@H](OCC)C[C@H]2C(=O)NC2(CC(C)(C)C2)C(=O)N(C)[C@@H](C(CC)CC)C(=O)N(C)[C@H](C(=O)N(C)C)CC(=O)N1C [PP2160]
NRAS/KRAS (ratio of KD value with respect to NRAS to KD value with respect to KRAS) ([1]; SPR, GDP-bound NRAS wild-type vs GDP-bound KRAS wild-type): A (a compound having 10 or more and less than 20 is denoted as A) | HRAS/KRAS (ratio of KD value with respect to HRAS to KD value with respect to KRAS) ([2]; SPR, GDP-bound HRAS wild-type vs GDP-bound KRAS wild-type): A (a compound having 10 or more and less than 20 is denoted as A)
